In US11191767B2, “Pharmaceutical composition for stimulating stem cell division and suppressing bacterial virulence” (priority 2017, dated 2021):
Like-named read-outs stand apart in the source and are kept apart here.

Experiments:
P. Aeruginosa strains = experiment: Antibiotic disc diffusion on Müller-Hinton agar with or without FCCD; type: cell-based, Pseudomonas aeruginosa; details: for sensitivity of bacteria to antibiotic disc (in words): discs added with additional passages, FCCD medium
Method: The studies are carried out in vitro by diffusion method on P. Aeruginosa strains indicated in previous experiments. Two rows of plates containing Müller-Hinton agar were prepared in parallel, with a 0.01-0.005% FCCD solution added to the second-row plates. After that, bacteria of the studied strains from a suspension containing 10^8 […] are inoculated on the surface of the agar. To do this, prepare a bacterial suspension corresponding to a concentration of 10^9 […] according to the optic turbidity standard of 10 units diluted with physiological salt solution 10 times (up to 10^8 μl/m1). […] Inoculations on plates with FCCD-free medium are used as controls, as well as media on which discs are not applied. Inoculations are incubated for 48 hours at 37° C. in one passage, then re-inoculation is carried out under similar conditions for the following passages. A total of 4 passages were carried out with controls. The results are taken into account by the diameter of the bacteria inhibition zones. On FCCD-free medium, there are no inhibition zones (an indicator of antibiotic resistance of bacteria), whereas on a medium containing 0.005-0.01% FCCD, a zone of bacterial growth inhibition from 25 to 40 mm in diameter forms around discs (appearance of sensitivity to antibiotic).
Growth inhibition zones were not observed for antibiotics Pseudomonas aeruginosa has genetically determined (initial) antibiotic resistance.

P. aeruginosa IMI-2016 = experiment: MIC of antibiotics by serial dilution with or without FCCD; type: cell-based
Method: The study is carried out on P. aeruginosa strains given in the previous examples by in vitro serial dilution method using FCCD. Evaluate the decrease in resistance of Pseudomonas aeruginosa strains to amikacin and polymyxin. Prepare two rows of plates with Müller-Hinton nutrient medium: the first row contains various concentrations of the studied antibiotic (amikacin and polymyxin)—31, 62, 125, 250, 500 μg/ml of medium (double dilution). At the same time, prepare the same row of plates, but add FCCD additionally into the medium at a concentration of (0.0001-0.001) %. Inoculate 0.05 ml (drop) of each test strain on the plates from a bacterial suspension containing 10^8 […] according to the optic turbidity standard of 10 units. Müller-Hinton medium without antibiotic and Müller-Hinton medium containing 0.0001% of FCCD without antibiotic are used as controls. Inoculations are incubated at 37° C. for 48 hours. The results are considered by the value of MIC (minimum inhibitory concentration) with the obligatory growth of bacteria on control plates (see table 12).

A. baumannii IMI-2016 = experiment: as above; type: cell-based
K. pneumoniae IMI-2016 = experiment: as above; type: cell-based
[1] = Pseudomonas aeruginosa, IMI2016, Control (without FCCD), read-out: MIC
[2] = Pseudomonas aeruginosa, IMI2016, with FCCD 0.001 % (first FCCD line), read-out: MIC
[3] = Pseudomonas aeruginosa, IMI2016, with FCCD 0.001 % (second FCCD line), read-out: MIC
[4] = Acinetobacter baumannii, IMI2016, Control (without FCCD), read-out: MIC
[5] = Acinetobacter baumannii, IMI2016, with FCCD 0.001 % (first FCCD line), read-out: MIC
[6] = Acinetobacter baumannii, IMI2016, with FCCD 0.001 % (second FCCD line), read-out: MIC
[7] = Klebsiella pneumoniae, IMI2016, Control (without FCCD), read-out: MIC
[8] = Klebsiella pneumoniae, IMI2016, with FCCD 0,001 % (first FCCD line), read-out: MIC
[9] = Klebsiella pneumoniae, IMI2016, with FCCD 0,001 % (second FCCD line), read-out: MIC
[10] = with FCCD 0.001 % (first FCCD line)
[11] = with FCCD 0.001 % (second FCCD line)
[12] = with FCCD 0,001 % (first FCCD line)
[13] = with FCCD 0,001 % (second FCCD line)

Which “zone of bacterial growth inhibition around disc (in words)” value (P. Aeruginosa strains; FCCD-free medium) does the source give for NCC[C@H](O)C(=O)N[C@@H]1C[C@H](N)[C@@H](O[C@H]2O[C@H](CN)[C@@H](O)[C@H](O)[C@H]2O)[C@H](O)[C@H]1O[C@H]1O[C@H](CO)[C@@H](O)[C@H](N)[C@H]1O [Amikacin] here?
Its value is “no zone of bacterial growth inhibition”.

What about the “zone of bacterial growth inhibition around disc (in words)” value (P. Aeruginosa strains; medium with (0.005-0.01)% FCCD) of the same molecule?
Its value is “zone of bacterial growth inhibition appears”.

And the “increase of sensitivity to antibiotic under FCCD” value (P. aeruginosa IMI-2016; Pseudomonas aeruginosa)?
The value was 33 times.

And the MIC (P. aeruginosa IMI-2016; [1])?
Its MIC is over 500 µg/mL.

And the MIC (P. aeruginosa IMI-2016; [2])?
The MIC was 15 µg/mL.

And the MIC (P. aeruginosa IMI-2016; [3])?
The MIC was 125 µg/mL.

What about the MIC (A. baumannii IMI-2016; [4]) of the same molecule?
Its MIC is over 500 µg/mL.

What about the MIC (A. baumannii IMI-2016; [5]) of the same molecule?
The MIC was 15 µg/mL.

And the MIC (A. baumannii IMI-2016; [6])?
Its MIC is 125 µg/mL.

What about the MIC (K. pneumoniae IMI-2016; [7]) of the same molecule?
Its MIC is over 500 µg/mL.

What about the MIC (K. pneumoniae IMI-2016; [8]) of the same molecule?
Its MIC is 31 µg/mL.

What about the MIC (K. pneumoniae IMI-2016; [9]) of the same molecule?
Its MIC is 62 µg/mL.

With Polymyxin as the molecule, how does the “zone of bacterial growth inhibition around disc (in words)” value (P. Aeruginosa strains; FCCD-free medium) read?
Its value is “no zone of bacterial growth inhibition”.

What about the “zone of bacterial growth inhibition around disc (in words)” value (P. Aeruginosa strains; medium with (0.005-0.01)% FCCD) of the same molecule?
Its value is “zone of bacterial growth inhibition appears”.

What about the MIC (P. aeruginosa IMI-2016; Control (without FCCD)) of the same molecule?
The MIC was 250 µg/mL.

What about the “increase of sensitivity to antibiotic under FCCD” value (P. aeruginosa IMI-2016; Pseudomonas aeruginosa) of the same molecule?
Its value is 16 times.

What about the MIC (P. aeruginosa IMI-2016; [10]) of the same molecule?
The MIC was 31 µg/mL.

What about the MIC (P. aeruginosa IMI-2016; [11]) of the same molecule?
Its MIC is 125 µg/mL.

And the MIC (A. baumannii IMI-2016; Control (without FCCD))?
Its MIC is over 500 µg/mL.

What about the MIC (A. baumannii IMI-2016; [10]) of the same molecule?
The MIC was 31 µg/mL.

What about the MIC (A. baumannii IMI-2016; [11]) of the same molecule?
The MIC was 62 µg/mL.

What about the MIC (K. pneumoniae IMI-2016; Control (without FCCD)) of the same molecule?
The MIC was over 500 µg/mL.

And the MIC (K. pneumoniae IMI-2016; [12])?
The MIC was 62 µg/mL.

And the MIC (K. pneumoniae IMI-2016; [13])?
Its MIC is 125 µg/mL.

Which results are given for CO/N=C(\C(=O)N[C@@H]1C(=O)N2C(C(=O)O)=C(CSc3nc(=O)c(=O)[nH]n3C)CS[C@H]12)c1csc(N)n1 [Ceftriaxone]?
MIC (P. aeruginosa IMI-2016; [1]): > 500 µg/mL; MIC (P. aeruginosa IMI-2016; [2]): 250 µg/mL; MIC (P. aeruginosa IMI-2016; [3]): 500 µg/mL; MIC (A. baumannii IMI-2016; [4]): > 500 µg/mL; MIC (A. baumannii IMI-2016; [5]): 250 µg/mL; MIC (A. baumannii IMI-2016; [6]): 125 µg/mL; MIC (K. pneumoniae IMI-2016; [7]): > 500 µg/mL; MIC (K. pneumoniae IMI-2016; [8]): 125 µg/mL; MIC (K. pneumoniae IMI-2016; [9]): 250 µg/mL

C[C@@H](O)[C@H]1C(=O)N2C(C(=O)O)=C(SCCN=CN)C[C@H]12 [Imipinem] was tested. Which MIC (P. aeruginosa IMI-2016; Control (without FCCD)) did it give?
Its MIC is over 500 µg/mL.

And the MIC (P. aeruginosa IMI-2016; [10])?
Its MIC is 250 µg/mL.

And the MIC (P. aeruginosa IMI-2016; [11])?
Its MIC is 125 µg/mL.

What about the MIC (A. baumannii IMI-2016; Control (without FCCD)) of the same molecule?
Its MIC is over 500 µg/mL.

And the MIC (A. baumannii IMI-2016; [10])?
The MIC was 250 µg/mL.

What about the MIC (A. baumannii IMI-2016; [11]) of the same molecule?
The MIC was 31 µg/mL.

What about the MIC (K. pneumoniae IMI-2016; Control (without FCCD)) of the same molecule?
The MIC was over 500 µg/mL.

And the MIC (K. pneumoniae IMI-2016; [12])?
The MIC was 250 µg/mL.

What about the MIC (K. pneumoniae IMI-2016; [13]) of the same molecule?
Its MIC is 125 µg/mL.

For CC1(C)S[C@@H]2[C@H](NC(=O)[C@H](N)c3ccc(O)cc3)C(=O)N2[C@H]1C(=O)O [amoxicillin], which “sensitivity of bacteria to antibiotic disc (in words)” value (P. Aeruginosa strains) is on record?
The value was “did not appear sensitive”.

Which “sensitivity of bacteria to antibiotic disc (in words)” value (P. Aeruginosa strains) does the source give for Cc1nnc(SCC2=C(C(=O)O)N3C(=O)[C@@H](NC(=O)Cn4cnnn4)[C@H]3SC2)s1 [cefazolin] here?
Its value is “did not appear sensitive”.

For C[C@H]1COc2c(N3CCN(C)CC3)c(F)cc3c(=O)c(C(=O)O)cn1c23 [Levofloxacin], which MIC (P. aeruginosa IMI-2016; [1]) is on record?
The MIC was over 500 µg/mL.

What about the MIC (P. aeruginosa IMI-2016; [2]) of the same molecule?
The MIC was 125 µg/mL.

What about the MIC (P. aeruginosa IMI-2016; [3]) of the same molecule?
The MIC was 250 µg/mL.

And the MIC (A. baumannii IMI-2016; [4])?
Its MIC is over 500 µg/mL.

And the MIC (A. baumannii IMI-2016; [5])?
Its MIC is 125 µg/mL.

And the MIC (A. baumannii IMI-2016; [6])?
Its MIC is 62 µg/mL.

And the MIC (K. pneumoniae IMI-2016; [7])?
Its MIC is over 500 µg/mL.

And the MIC (K. pneumoniae IMI-2016; [8])?
The MIC was 125 µg/mL.

And the MIC (K. pneumoniae IMI-2016; [9])?
Its MIC is 250 µg/mL.
